Patent US7371730B2, “Crystals of glucopyranosyloxybenzyl benzene derivative” (Kissei Pharmaceutical Co., Ltd., priority 2002, dated 2008)

Experiment: Stability test (storage; HPLC residual percentage and X-ray powder diffraction)
Type: physicochemical
Settings: storage 40° C./75% RH, 2 months, stopper tightly, and 60° C.
Procedure: Stability tests were carried out under the following conditions for crystalline forms α and β. Residual percentages of test substances were determined by HPLC, and changes in crystalline form were examined by X-ray powder diffraction analysis.
• detection; 225 nm • column; Inertsil ODS-3 • column temperature; 30° C. • mobile phase; 0.02 mol/L phosphate buffer (pH 3.0): acetonitrile=58:42→30:70 • flow rate; 1.0 mL/min. Storage conditions: • 1) 40° C./75% RH, 2 months, stopper tightly • 2) 60° C., 2 months, stopper tightly

changes in crystalline form (X-ray powder diffraction analysis): no change | residual percentage of test substance (HPLC): no change
SMILES: CCOC(=O)OC[C@H]1O[C@@H](Oc2ccccc2Cc2ccc(OC)cc2)[C@H](O)[C@@H](O)[C@@H]1O [crystalline form α, 2-(4-methoxybenzyl)phenyl 6-O-ethoxycarbonyl-β-D-glucopyranoside]
